Among the data in BindingDB's records for doi:10.1016/j.bmc.2014.04.022 (Tohoku Pharmaceutical University, 2014) are IC50 and EC50 values, retold here.

The nature of assay [1]: Antagonist activity at estrogen receptor in human MCF7 cells assessed as inhibition of estradiol-induced cell proliferation after 5 days by WST-8 assay. Background: Formazan colour is commonly taken as a measure of viable cells.
Assay [2] can be described thus: Agonist activity at estrogen receptor in human MCF7 cells assessed as induction of cell proliferation after 5 days by WST-8 assay.

For orientation: IC50 means the concentration that gives 50% inhibition. The term EC50 denotes the concentration giving half of the maximal effect.

Turning to `CN(C)CCOc1ccc(C23CC4CC(CC(c5ccc(O)cc5)(C4)C2)C3)cc1`, the IC50 in assay [1] was found to be 1060 nM. Besides, in assay [2], the EC50 turned out to be 16 nM.
